Reference: US20250127874A1, “CMV EPITOPES” (The Council of the Queensland Institute of Medical Research, priority 2016, published 2025)

Test system: CD8+ T cells
Assay: PBMC from HSCT recipients stimulated with HLA-matched peptide epitopes, cultured two weeks with IL-2, IFN-γ production by CD8+ T cells on recall
Excerpt: To assess the impact of epitope variation and co-infection on IE-1 specific T cell immunity, PBMC samples from HSCT recipients showing evidence of viral reactivation were stimulated with all potentially HLA-matched variant peptide epitopes then cultured in vitro for two weeks in the presence of IL-2. PBMC from nine HSCT recipients showing immune reconstitution with no evidence of CMV reactivation were also stimulated with HLA-matched variant peptide epitopes (Table 2). As a control, PBMC were stimulated with at least two conserved HLA matched epitopes.

| Sequence | T cell response against epitope (HLA B44-positive HSCT recipients with reactivation (7)) | T cell response against epitope (recipient 17 (HLA-B8), longitudinal analysis during and after viral reactivation) |
| --- | --- | --- |
| EDAIAAYTL (Cytomegalovirus) | failed to induce a significant T cell response in any recipient |  |
| VTEHDTTLY |  | absence of a detectable response |
